Source: PubChem BioAssay (NCI)
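These data come from cells grown in 96-well plates and exposed to compound for 48 hours at five concentrations. The concentration for full growth arrest is given as TGI.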

Columns and labels:
Test in all cases: NCI tumour cell line growth inhibition, 48 h
SK-MEL-5 melanoma = test system: SK-MEL-5 melanoma
SR leukemia = test system: SR leukemia
MOLT-4 leukemia = test system: MOLT-4 leukemia
HCT-116 colon = test system: HCT-116 colon
A549 NSCLC = test system: A549 NSCLC
PC-3 prostate = test system: PC-3 prostate
SF-295 CNS = test system: SF-295 CNS
UACC-62 melanoma = test system: UACC-62 melanoma
U251 CNS = test system: U251 CNS
IGROV1 ovarian = test system: IGROV1 ovarian
T-47D breast = test system: T-47D breast
SK-MEL-2 melanoma = test system: SK-MEL-2 melanoma
CAKI-1 renal = test system: CAKI-1 renal
CCRF-CEM leukemia = test system: CCRF-CEM leukemia
UO-31 renal = test system: UO-31 renal
KM12 colon = test system: KM12 colon
HT29 colon = test system: HT29 colon
SF-268 CNS = test system: SF-268 CNS
TK-10 renal = test system: TK-10 renal
HCT-15 colon = test system: HCT-15 colon
SK-OV-3 ovarian = test system: SK-OV-3 ovarian
OVCAR-4 ovarian = test system: OVCAR-4 ovarian
LOX IMVI melanoma = test system: LOX IMVI melanoma
HS 578T breast = test system: HS 578T breast
MALME-3M melanoma = test system: MALME-3M melanoma
MCF7 breast = test system: MCF7 breast
OVCAR-8 ovarian = test system: OVCAR-8 ovarian
K-562 leukemia = test system: K-562 leukemia
RPMI-8226 leukemia = test system: RPMI-8226 leukemia
M14 melanoma = test system: M14 melanoma
NCI-H23 lung = test system: NCI-H23 lung
HOP-92 NSCLC = test system: HOP-92 NSCLC
NCI-H226 lung = test system: NCI-H226 lung
OVCAR-3 ovarian = test system: OVCAR-3 ovarian
BT-549 breast = test system: BT-549 breast
NCI-H522 lung = test system: NCI-H522 lung
NCI-H460 lung = test system: NCI-H460 lung
DU-145 prostate = test system: DU-145 prostate
EKVX NSCLC = test system: EKVX NSCLC
SNB-19 CNS = test system: SNB-19 CNS
SN12C renal = test system: SN12C renal
SNB-75 CNS = test system: SNB-75 CNS
UACC-257 melanoma = test system: UACC-257 melanoma
SK-MEL-28 melanoma = test system: SK-MEL-28 melanoma
HL-60(TB) leukemia = test system: HL-60(TB) leukemia
786-0 renal = test system: 786-0 renal
COLO 205 colon = test system: COLO 205 colon
HOP-62 NSCLC = test system: HOP-62 NSCLC
MDA-N = test system: MDA-N
NCI/ADR-RES ovarian = test system: NCI/ADR-RES ovarian
MDA-MB-435 = test system: MDA-MB-435
SF-539 CNS = test system: SF-539 CNS
HCC-2998 colon = test system: HCC-2998 colon
MDA-MB-231 breast = test system: MDA-MB-231 breast
ACHN renal = test system: ACHN renal
OVCAR-5 ovarian = test system: OVCAR-5 ovarian

**Q.** Which results are given for Cc1ccc(S(=O)(=O)N/N=C2/C3C(CC2(C)C)C2(C)CCCC3(C)C2O)cc1 (stereo not drawn)?
**A.** TGI (SK-MEL-5 melanoma): 28.8 µM; TGI (SR leukemia): > 100 µM; TGI (MOLT-4 leukemia): 57.6 µM; TGI (HCT-116 colon): 33.9 µM; TGI (A549 NSCLC): 63.7 µM; TGI (PC-3 prostate): 29.7 µM; TGI (SF-295 CNS): 29.6 µM; TGI (UACC-62 melanoma): 30 µM; TGI (U251 CNS): 32.1 µM; TGI (IGROV1 ovarian): 69.8 µM; TGI (T-47D breast): 54.5 µM; TGI (SK-MEL-2 melanoma): 45.8 µM; TGI (CAKI-1 renal): > 100 µM; TGI (CCRF-CEM leukemia): 59.4 µM; TGI (UO-31 renal): > 100 µM; TGI (KM12 colon): 35.1 µM; TGI (HT29 colon): 39.6 µM; TGI (SF-268 CNS): > 100 µM; TGI (TK-10 renal): > 100 µM; TGI (HCT-15 colon): 60 µM; TGI (SK-OV-3 ovarian): 44.8 µM; TGI (OVCAR-4 ovarian): 43.3 µM; TGI (LOX IMVI melanoma): 27.4 µM; TGI (HS 578T breast): 55.6 µM; TGI (MALME-3M melanoma): 45.4 µM; TGI (MCF7 breast): 43.2 µM; TGI (OVCAR-8 ovarian): > 100 µM; TGI (K-562 leukemia): > 100 µM; TGI (RPMI-8226 leukemia): > 100 µM; TGI (M14 melanoma): 56.3 µM; TGI (NCI-H23 lung): 42.8 µM; TGI (HOP-92 NSCLC): 33.3 µM; TGI (NCI-H226 lung): 35.3 µM; TGI (OVCAR-3 ovarian): > 100 µM; TGI (BT-549 breast): 31 µM; TGI (NCI-H522 lung): 44.5 µM; TGI (NCI-H460 lung): 37.7 µM; TGI (DU-145 prostate): > 100 µM; TGI (EKVX NSCLC): > 100 µM; TGI (SNB-19 CNS): 96.5 µM; TGI (SN12C renal): 36.5 µM; TGI (SNB-75 CNS): 39.3 µM; TGI (UACC-257 melanoma): 33.3 µM; TGI (SK-MEL-28 melanoma): 40.4 µM; TGI (HL-60(TB) leukemia): > 100 µM; TGI (786-0 renal): 45.3 µM; TGI (COLO 205 colon): 31.8 µM; TGI (HOP-62 NSCLC): > 100 µM; TGI (MDA-N): 37.9 µM; TGI (NCI/ADR-RES ovarian): 94.6 µM

**Q.** Which TGI (SK-MEL-5 melanoma) does the source give for COc1ccc2[nH]c3c(C)c4ccnc(NCCCN(C)CCCN)c4c(C)c3c2c1 here?
**A.** 0.37 µM

**Q.** What about the TGI (SR leukemia) of the same compound?
**A.** > 100 µM

**Q.** What about the TGI (MOLT-4 leukemia) of the same compound?
**A.** > 100 µM

**Q.** What about the TGI (PC-3 prostate) of the same compound?
**A.** 0.712 µM

**Q.** And the TGI (SF-295 CNS)?
**A.** 0.66 µM

**Q.** What about the TGI (UACC-62 melanoma) of the same compound?
**A.** 0.479 µM

**Q.** And the TGI (IGROV1 ovarian)?
**A.** 0.678 µM

**Q.** And the TGI (T-47D breast)?
**A.** 0.814 µM

**Q.** What about the TGI (SK-MEL-2 melanoma) of the same compound?
**A.** 0.809 µM

**Q.** What about the TGI (CAKI-1 renal) of the same compound?
**A.** 0.551 µM

**Q.** What about the TGI (CCRF-CEM leukemia) of the same compound?
**A.** > 32.1 µM

**Q.** What about the TGI (UO-31 renal) of the same compound?
**A.** 3.23 µM

**Q.** What about the TGI (KM12 colon) of the same compound?
**A.** 0.809 µM

**Q.** What about the TGI (HT29 colon) of the same compound?
**A.** 0.17 µM

**Q.** What about the TGI (TK-10 renal) of the same compound?
**A.** 1.35 µM

**Q.** What about the TGI (HCT-15 colon) of the same compound?
**A.** 1.47 µM

**Q.** And the TGI (SK-OV-3 ovarian)?
**A.** 2.47 µM

**Q.** What about the TGI (OVCAR-4 ovarian) of the same compound?
**A.** 0.442 µM

**Q.** What about the TGI (MALME-3M melanoma) of the same compound?
**A.** 1.19 µM

**Q.** What about the TGI (MCF7 breast) of the same compound?
**A.** 0.313 µM

**Q.** And the TGI (OVCAR-8 ovarian)?
**A.** 0.376 µM

**Q.** What about the TGI (K-562 leukemia) of the same compound?
**A.** > 100 µM

**Q.** And the TGI (RPMI-8226 leukemia)?
**A.** > 100 µM

**Q.** What about the TGI (M14 melanoma) of the same compound?
**A.** 0.335 µM

**Q.** What about the TGI (NCI-H23 lung) of the same compound?
**A.** 0.87 µM

**Q.** What about the TGI (NCI-H226 lung) of the same compound?
**A.** 0.223 µM

**Q.** What about the TGI (OVCAR-3 ovarian) of the same compound?
**A.** 1.54 µM

**Q.** What about the TGI (BT-549 breast) of the same compound?
**A.** 3.61 µM

**Q.** And the TGI (MDA-MB-435)?
**A.** 0.401 µM

**Q.** What about the TGI (NCI-H522 lung) of the same compound?
**A.** 0.137 µM

**Q.** What about the TGI (SF-539 CNS) of the same compound?
**A.** 0.28 µM

**Q.** What about the TGI (NCI-H460 lung) of the same compound?
**A.** 0.213 µM

**Q.** And the TGI (DU-145 prostate)?
**A.** 0.652 µM

**Q.** And the TGI (HCC-2998 colon)?
**A.** 0.376 µM

**Q.** And the TGI (EKVX NSCLC)?
**A.** 0.538 µM

**Q.** And the TGI (MDA-MB-231 breast)?
**A.** 0.248 µM

**Q.** And the TGI (ACHN renal)?
**A.** 0.514 µM

**Q.** And the TGI (SNB-19 CNS)?
**A.** 0.403 µM

**Q.** And the TGI (SN12C renal)?
**A.** 0.257 µM

**Q.** And the TGI (SNB-75 CNS)?
**A.** 0.0976 µM

**Q.** What about the TGI (UACC-257 melanoma) of the same compound?
**A.** 2.95 µM

**Q.** What about the TGI (SK-MEL-28 melanoma) of the same compound?
**A.** 1.61 µM

**Q.** And the TGI (786-0 renal)?
**A.** 0.39 µM

**Q.** What about the TGI (OVCAR-5 ovarian) of the same compound?
**A.** 0.725 µM

**Q.** And the TGI (COLO 205 colon)?
**A.** 0.253 µM

**Q.** What about the TGI (HOP-62 NSCLC) of the same compound?
**A.** 0.385 µM

**Q.** And the TGI (MDA-N)?
**A.** 0.496 µM

**Q.** And the TGI (NCI/ADR-RES ovarian)?
**A.** 2.09 µM
